PubChem BioAssay (NCI)
“And” between values parts separate entries of the source, which are not always exact repeats. Equal entries are not always repeated.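 Dose response: 5 concentrations. Exposure: 48 h. Format: 96-well plates. Endpoint: linear interpolation; highest concentration if not reached. At the GI50, growth is halved. TGI: total growth inhibition.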

tested on: HCC-2998 colon; assay: NCI tumour cell line growth inhibition, 48 h

| SMILES | GI50 | TGI |
| --- | --- | --- |
| CCCSc1cc(Cl)nc(N)n1 | > 100 µM | > 100 µM |
| CN1CCN(Cc2ccc(NC(=O)c3ccc(C(C)(C)C)c(C#Cc4cnc5cccnn45)c3)cc2C(F)(F)F)CC1 | 1.83 µM | 3.38 µM |
| C=CC(=O)N1CCN(c2ncnc3c(F)c(-c4c(O)cccc4F)c(Cl)cc23)CC1 | 17.5 µM | 32.7 µM |
| C=CCOc1c(Br)cc(Br)cc1Br | 46.4 µM | > 100 µM |
| CC(=O)n1c(-c2ccc(Cl)cc2)nc2c(c1=O)C(c1ccc(Cl)cc1)c1sc3c(Cl)cccc3c1O2 (stereo unspecified) | 1.09 µM | 2.57 µM |
| CN(C)CCNC(=O)Nc1c(C#N)[n+]([O-])c2cc(Cl)c(Cl)cc2[n+]1[O-] | 27.4 µM | > 100 µM |
| COc1ccccc1C(=O)c1ccc2ccccc2c1 |  | > 100 µM |
| CS(=O)(=O)Nc1ccc(-c2ccc3c(NC(=O)C4CC4)n[nH]c3c2)cc1 | > 25 µM | > 25 µM |
| C=C1C(=O)O[C@H]2[C@H]1CC/C(COC(=O)c1cc3cc(OC)ccc3[nH]1)=C\CC[C@@]1(C)O[C@@H]21 | 1.54 µM | 2.91 µM |
| COCC(=O)OC1CCn2c1nc1c2C(=O)C(C)=C(NC(C)=O)C1=O (stereo unspecified) |  | 28.7 µM |
| COc1ccc(C2C(C#N)=C(N)OC3=C2CCCc2ccc(F)cc23)cc1OC (stereo unspecified) | 15.6 µM | 31.6 µM |
| Nc1ccc(SC23CC4CC(CC(C4)C2)C3)cc1 |  | > 100 µM |
| CCOC(=O)[C@@H](C)C[C@H](Cc1ccccc1)NC(=O)c1csc([C@@H](C[C@H](C(C)C)N(C)C(=O)[C@@H](NC(=O)[C@H]2CCCCN2C)C(C)(C)C)OC(C)=O)n1 | < 0.00167 µM |  |
| COc1ccc2c(c1)C=CC(C#N)N2C(=O)c1ccccc1 (stereo unspecified) | 0.0129 µM | > 100 µM |

tested on: NCI-H522 lung; assay: NCI tumour cell line growth inhibition, 48 h

| SMILES | GI50 | TGI |
| --- | --- | --- |
| CCCSc1cc(Cl)nc(N)n1 | > 100 µM | > 100 µM |
| CN1CCN(Cc2ccc(NC(=O)c3ccc(C(C)(C)C)c(C#Cc4cnc5cccnn45)c3)cc2C(F)(F)F)CC1 | 2.2 µM | 3.95 µM |
| C=CC(=O)N1CCN(c2ncnc3c(F)c(-c4c(O)cccc4F)c(Cl)cc23)CC1 | 15.6 µM | 35.1 µM |
| C=CCOc1c(Br)cc(Br)cc1Br | 4.68 µM | 30.7 µM |
| CC(=O)n1c(-c2ccc(Cl)cc2)nc2c(c1=O)C(c1ccc(Cl)cc1)c1sc3c(Cl)cccc3c1O2 (stereo unspecified) | 0.296 µM | 1.63 µM |
| CN(C)CCNC(=O)Nc1c(C#N)[n+]([O-])c2cc(Cl)c(Cl)cc2[n+]1[O-] | 13.1 µM | 35.3 µM |
| COc1ccccc1C(=O)c1ccc2ccccc2c1 |  | 21.5 µM |
| CS(=O)(=O)Nc1ccc(-c2ccc3c(NC(=O)C4CC4)n[nH]c3c2)cc1 | > 25 µM | > 25 µM |
| C=C1C(=O)O[C@H]2[C@H]1CC/C(COC(=O)c1cc3cc(OC)ccc3[nH]1)=C\CC[C@@]1(C)O[C@@H]21 | 0.701 µM | 2.28 µM |
| COCC(=O)OC1CCn2c1nc1c2C(=O)C(C)=C(NC(C)=O)C1=O (stereo unspecified) | 5.52 µM | 14.3 µM |
| COc1ccc(C2C(C#N)=C(N)OC3=C2CCCc2ccc(F)cc23)cc1OC (stereo unspecified) | 17.8 µM | 37.6 µM |
| Nc1ccc(SC23CC4CC(CC(C4)C2)C3)cc1 |  | > 100 µM |
| CCOC(=O)[C@@H](C)C[C@H](Cc1ccccc1)NC(=O)c1csc([C@@H](C[C@H](C(C)C)N(C)C(=O)[C@@H](NC(=O)[C@H]2CCCCN2C)C(C)(C)C)OC(C)=O)n1 | < 0.00167 µM | 0.0644 µM |
| COc1ccc2c(c1)C=CC(C#N)N2C(=O)c1ccccc1 (stereo unspecified) | < 0.01 µM | 0.188 µM |

tested on: HCT-15 colon; assay: NCI tumour cell line growth inhibition, 48 h

| SMILES | GI50 | TGI |
| --- | --- | --- |
| CCCSc1cc(Cl)nc(N)n1 | > 100 µM | > 100 µM |
| CN1CCN(Cc2ccc(NC(=O)c3ccc(C(C)(C)C)c(C#Cc4cnc5cccnn45)c3)cc2C(F)(F)F)CC1 | 1.21 µM | 2.66 µM |
| C=CC(=O)N1CCN(c2ncnc3c(F)c(-c4c(O)cccc4F)c(Cl)cc23)CC1 | 10 µM | 27 µM |
| C=CCOc1c(Br)cc(Br)cc1Br | 16.7 µM | > 100 µM |
| CC(=O)n1c(-c2ccc(Cl)cc2)nc2c(c1=O)C(c1ccc(Cl)cc1)c1sc3c(Cl)cccc3c1O2 (stereo unspecified) | 0.418 µM | 1.74 µM |
| CN(C)CCNC(=O)Nc1c(C#N)[n+]([O-])c2cc(Cl)c(Cl)cc2[n+]1[O-] | 41.4 µM | > 100 µM |
| COc1ccccc1C(=O)c1ccc2ccccc2c1 |  | > 100 µM |
| CS(=O)(=O)Nc1ccc(-c2ccc3c(NC(=O)C4CC4)n[nH]c3c2)cc1 | > 25 µM | > 25 µM |
| C=C1C(=O)O[C@H]2[C@H]1CC/C(COC(=O)c1cc3cc(OC)ccc3[nH]1)=C\CC[C@@]1(C)O[C@@H]21 | 0.323 µM | 1.6 µM |
| COCC(=O)OC1CCn2c1nc1c2C(=O)C(C)=C(NC(C)=O)C1=O (stereo unspecified) |  | 30.1 µM |
| COc1ccc(C2C(C#N)=C(N)OC3=C2CCCc2ccc(F)cc23)cc1OC (stereo unspecified) | 17.8 µM | 38 µM |
| Nc1ccc(SC23CC4CC(CC(C4)C2)C3)cc1 |  | > 100 µM |
| CCOC(=O)[C@@H](C)C[C@H](Cc1ccccc1)NC(=O)c1csc([C@@H](C[C@H](C(C)C)N(C)C(=O)[C@@H](NC(=O)[C@H]2CCCCN2C)C(C)(C)C)OC(C)=O)n1 | < 0.00167 µM | > 16.7 µM |
| COc1ccc2c(c1)C=CC(C#N)N2C(=O)c1ccccc1 (stereo unspecified) | < 0.01 µM | > 100 µM |

tested on: LOX IMVI melanoma; assay: NCI tumour cell line growth inhibition, 48 h

| SMILES | GI50 | TGI |
| --- | --- | --- |
| CCCSc1cc(Cl)nc(N)n1 | > 100 µM | > 100 µM |
| CN1CCN(Cc2ccc(NC(=O)c3ccc(C(C)(C)C)c(C#Cc4cnc5cccnn45)c3)cc2C(F)(F)F)CC1 | 1.52 µM | 2.87 µM |
| C=CC(=O)N1CCN(c2ncnc3c(F)c(-c4c(O)cccc4F)c(Cl)cc23)CC1 | 12.6 µM | 31 µM |
| C=CCOc1c(Br)cc(Br)cc1Br | 15.9 µM | > 100 µM |
| CC(=O)n1c(-c2ccc(Cl)cc2)nc2c(c1=O)C(c1ccc(Cl)cc1)c1sc3c(Cl)cccc3c1O2 (stereo unspecified) | 0.59 µM | 1.91 µM |
| CN(C)CCNC(=O)Nc1c(C#N)[n+]([O-])c2cc(Cl)c(Cl)cc2[n+]1[O-] | 18.3 µM | > 100 µM |
| COc1ccccc1C(=O)c1ccc2ccccc2c1 |  | 31.7 µM |
| CS(=O)(=O)Nc1ccc(-c2ccc3c(NC(=O)C4CC4)n[nH]c3c2)cc1 | > 25 µM | > 25 µM |
| C=C1C(=O)O[C@H]2[C@H]1CC/C(COC(=O)c1cc3cc(OC)ccc3[nH]1)=C\CC[C@@]1(C)O[C@@H]21 | 0.3 µM | 1.34 µM |
| COCC(=O)OC1CCn2c1nc1c2C(=O)C(C)=C(NC(C)=O)C1=O (stereo unspecified) | 2.81 µM | 13.2 µM |
| COc1ccc(C2C(C#N)=C(N)OC3=C2CCCc2ccc(F)cc23)cc1OC (stereo unspecified) | 21.9 µM | 44.8 µM |
| Nc1ccc(SC23CC4CC(CC(C4)C2)C3)cc1 |  | > 100 µM |
| CCOC(=O)[C@@H](C)C[C@H](Cc1ccccc1)NC(=O)c1csc([C@@H](C[C@H](C(C)C)N(C)C(=O)[C@@H](NC(=O)[C@H]2CCCCN2C)C(C)(C)C)OC(C)=O)n1 | < 0.00167 µM | > 16.7 µM |
| COc1ccc2c(c1)C=CC(C#N)N2C(=O)c1ccccc1 (stereo unspecified) | < 0.01 µM | > 100 µM |

tested on: CCRF-CEM leukemia; assay: NCI tumour cell line growth inhibition, 48 h

| SMILES | GI50 | TGI |
| --- | --- | --- |
| CCCSc1cc(Cl)nc(N)n1 | > 100000 nM | > 100 µM |
| CN1CCN(Cc2ccc(NC(=O)c3ccc(C(C)(C)C)c(C#Cc4cnc5cccnn45)c3)cc2C(F)(F)F)CC1 | 1930 nM | 4.63 µM |
| C=CC(=O)N1CCN(c2ncnc3c(F)c(-c4c(O)cccc4F)c(Cl)cc23)CC1 | 9790 nM | > 100 µM |
| C=CCOc1c(Br)cc(Br)cc1Br | 10400 nM | > 100 µM |
| CC(=O)n1c(-c2ccc(Cl)cc2)nc2c(c1=O)C(c1ccc(Cl)cc1)c1sc3c(Cl)cccc3c1O2 (stereo unspecified) | 383 nM | 4.12 µM |
| CN(C)CCNC(=O)Nc1c(C#N)[n+]([O-])c2cc(Cl)c(Cl)cc2[n+]1[O-] | 6880 nM | > 100 µM |
| COc1ccccc1C(=O)c1ccc2ccccc2c1 |  | > 100 µM |
| CS(=O)(=O)Nc1ccc(-c2ccc3c(NC(=O)C4CC4)n[nH]c3c2)cc1 | 24200 nM | > 25 µM |
| C=C1C(=O)O[C@H]2[C@H]1CC/C(COC(=O)c1cc3cc(OC)ccc3[nH]1)=C\CC[C@@]1(C)O[C@@H]21 | 348 nM | 1.57 µM |
| COCC(=O)OC1CCn2c1nc1c2C(=O)C(C)=C(NC(C)=O)C1=O (stereo unspecified) | 262 nM | 1.58 µM and 8.85 µM |
| COc1ccc(C2C(C#N)=C(N)OC3=C2CCCc2ccc(F)cc23)cc1OC (stereo unspecified) |  | 0.0686 µM |
| Nc1ccc(SC23CC4CC(CC(C4)C2)C3)cc1 |  | > 100 µM |
| CCOC(=O)[C@@H](C)C[C@H](Cc1ccccc1)NC(=O)c1csc([C@@H](C[C@H](C(C)C)N(C)C(=O)[C@@H](NC(=O)[C@H]2CCCCN2C)C(C)(C)C)OC(C)=O)n1 | < 1.67 nM | > 16.7 µM |
| COc1ccc2c(c1)C=CC(C#N)N2C(=O)c1ccccc1 (stereo unspecified) | < 10 nM | > 100 µM |
